Results on one molecule are retold here after patent US12187707B2, “Pharmaceutical formulations of N-(2-(2-(dimethylamino)ethoxy)-4-methoxy-5-((4-(1-methyl-1H-indol-3-yl)pyrimidin-2-yl)amino)phenyl)acrylaminde and salts thereof” (Beta Pharma, Inc., priority 2017, dated 2025).

The nature of the data set: Stability testing of Formulation 1 and 1·Ms by HPLC (assay and total related substances) after storage in a stability chamber. It counts as physicochemical. The method, then: Microcrystalline cellulose (392.43 mg), dicalcium phosphate (735.35 mg), sodium starch glycolate (45.09 mg), silicon dioxide (15.03 mg), and magnesium stearate (15.03 mg) were combined and blended with a vortex mixer in the amounts and proportions indicated in Table 1. The resulting mixture was filtered through a #35 mesh sieve to give Mixture A. A 20.05 mg portion of Mixture A was combined with 5.0 mg of 1·Ms (C27H30N6O3·1.06 CH3SO3H, purity=100%) of crystalline Form 2A in a 40 mL glass vial and blended thoroughly with a vortex mixer to afford Formulation 1, which has a theoretical composition as calculated in Table 1.
All samples were stored in a stability chamber at temperatures of −20° C., 50° C., and at 40° C./75% relative humidity for 2-week and 4-week periods and analyzed for stability. Closed-dish samples were capped and sealed with Parafilm. Open-dish samples were covered by aluminum foil that was pierced with a pinhole.
After reaching room temperature, each sample was added to a 40 mL sample vial containing 10 mL of diluent (0.05% TFA in H2O:MeCN=1:1 v/v) and sonicated for 10 minutes with occasional shaking. All samples were centrifuged at 14,000 rpm for 10 minutes and the supernatant was analyzed by HPLC. The working standard solution (5 mg of 1 Ms in 10 mL of diluent) was used as a reference. Results for Formulation 1 are shown in Table 3, in which purity is measured as percent (%) versus total related substances (TRS). As shown in […] and FIGS. 7 to 9, Formulation 1 was stable over an extended period.

Setting [1] is: 40° C. @ 75% relative humidity, 2 weeks.
[2] abbreviates: 40° C. @ 75% relative humidity, 4 weeks.

Take `C=CC(=O)Nc1cc(Nc2nccc(-c3cn(C)c4ccccc34)n2)c(OC)cc1OCCN(C)C` [1 · Ms, N-(2-(2-(Dimethylamino)ethoxy)-4-methoxy-5-((4-(1-methyl-1H-indol-3-yl)pyrimidin-2-yl)amino)phenyl)acrylamide methanesulfonate (1:1)]: the Assay under setting [1] came to 101.1%; the Assay under setting [2] was determined as 99.3%; the Assay (50° C., 2 weeks) is recorded as 101.4%; the Assay (50° C., 4 weeks) worked out at 99.9%; the Assay (Initial) stood at 100.2%. Also, the “TRS (total related substances)” value by setting is: under setting [1], 0.00%; under setting [2], 0.00%; (50° C., 2 weeks) 0.00%; (50° C., 4 weeks) 0.00%; (Initial) 0.00%.
